Calls of active or inactive are those of the source. The rule behind the calls is not given here.
Experiments:
[1] = target: Histone acetyltransferase KAT2B (Homo sapiens) (UniProt Q92831); test: Inhibition of recombinant human KAT2B (492 to 658 residues) using histone H3 peptide and [3H]-acetyl-coA as substrates at 200 uM incubated for 1 hrs by liquid scintillation counter analysis
[2] = target: Histone acetyltransferase p300 (Homo sapiens) (UniProt Q09472); test: Inhibition of recombinant human KAT3B (1287 to 1673 residues) using histone H3 peptide and [3H]-acetyl-coA as substrates at 200 uM incubated for 1 hrs by liquid scintillation counter analysis
Sequence of Histone acetyltransferase p300 (Homo sapiens) (Q09472 whole entry, the tested form may be a part): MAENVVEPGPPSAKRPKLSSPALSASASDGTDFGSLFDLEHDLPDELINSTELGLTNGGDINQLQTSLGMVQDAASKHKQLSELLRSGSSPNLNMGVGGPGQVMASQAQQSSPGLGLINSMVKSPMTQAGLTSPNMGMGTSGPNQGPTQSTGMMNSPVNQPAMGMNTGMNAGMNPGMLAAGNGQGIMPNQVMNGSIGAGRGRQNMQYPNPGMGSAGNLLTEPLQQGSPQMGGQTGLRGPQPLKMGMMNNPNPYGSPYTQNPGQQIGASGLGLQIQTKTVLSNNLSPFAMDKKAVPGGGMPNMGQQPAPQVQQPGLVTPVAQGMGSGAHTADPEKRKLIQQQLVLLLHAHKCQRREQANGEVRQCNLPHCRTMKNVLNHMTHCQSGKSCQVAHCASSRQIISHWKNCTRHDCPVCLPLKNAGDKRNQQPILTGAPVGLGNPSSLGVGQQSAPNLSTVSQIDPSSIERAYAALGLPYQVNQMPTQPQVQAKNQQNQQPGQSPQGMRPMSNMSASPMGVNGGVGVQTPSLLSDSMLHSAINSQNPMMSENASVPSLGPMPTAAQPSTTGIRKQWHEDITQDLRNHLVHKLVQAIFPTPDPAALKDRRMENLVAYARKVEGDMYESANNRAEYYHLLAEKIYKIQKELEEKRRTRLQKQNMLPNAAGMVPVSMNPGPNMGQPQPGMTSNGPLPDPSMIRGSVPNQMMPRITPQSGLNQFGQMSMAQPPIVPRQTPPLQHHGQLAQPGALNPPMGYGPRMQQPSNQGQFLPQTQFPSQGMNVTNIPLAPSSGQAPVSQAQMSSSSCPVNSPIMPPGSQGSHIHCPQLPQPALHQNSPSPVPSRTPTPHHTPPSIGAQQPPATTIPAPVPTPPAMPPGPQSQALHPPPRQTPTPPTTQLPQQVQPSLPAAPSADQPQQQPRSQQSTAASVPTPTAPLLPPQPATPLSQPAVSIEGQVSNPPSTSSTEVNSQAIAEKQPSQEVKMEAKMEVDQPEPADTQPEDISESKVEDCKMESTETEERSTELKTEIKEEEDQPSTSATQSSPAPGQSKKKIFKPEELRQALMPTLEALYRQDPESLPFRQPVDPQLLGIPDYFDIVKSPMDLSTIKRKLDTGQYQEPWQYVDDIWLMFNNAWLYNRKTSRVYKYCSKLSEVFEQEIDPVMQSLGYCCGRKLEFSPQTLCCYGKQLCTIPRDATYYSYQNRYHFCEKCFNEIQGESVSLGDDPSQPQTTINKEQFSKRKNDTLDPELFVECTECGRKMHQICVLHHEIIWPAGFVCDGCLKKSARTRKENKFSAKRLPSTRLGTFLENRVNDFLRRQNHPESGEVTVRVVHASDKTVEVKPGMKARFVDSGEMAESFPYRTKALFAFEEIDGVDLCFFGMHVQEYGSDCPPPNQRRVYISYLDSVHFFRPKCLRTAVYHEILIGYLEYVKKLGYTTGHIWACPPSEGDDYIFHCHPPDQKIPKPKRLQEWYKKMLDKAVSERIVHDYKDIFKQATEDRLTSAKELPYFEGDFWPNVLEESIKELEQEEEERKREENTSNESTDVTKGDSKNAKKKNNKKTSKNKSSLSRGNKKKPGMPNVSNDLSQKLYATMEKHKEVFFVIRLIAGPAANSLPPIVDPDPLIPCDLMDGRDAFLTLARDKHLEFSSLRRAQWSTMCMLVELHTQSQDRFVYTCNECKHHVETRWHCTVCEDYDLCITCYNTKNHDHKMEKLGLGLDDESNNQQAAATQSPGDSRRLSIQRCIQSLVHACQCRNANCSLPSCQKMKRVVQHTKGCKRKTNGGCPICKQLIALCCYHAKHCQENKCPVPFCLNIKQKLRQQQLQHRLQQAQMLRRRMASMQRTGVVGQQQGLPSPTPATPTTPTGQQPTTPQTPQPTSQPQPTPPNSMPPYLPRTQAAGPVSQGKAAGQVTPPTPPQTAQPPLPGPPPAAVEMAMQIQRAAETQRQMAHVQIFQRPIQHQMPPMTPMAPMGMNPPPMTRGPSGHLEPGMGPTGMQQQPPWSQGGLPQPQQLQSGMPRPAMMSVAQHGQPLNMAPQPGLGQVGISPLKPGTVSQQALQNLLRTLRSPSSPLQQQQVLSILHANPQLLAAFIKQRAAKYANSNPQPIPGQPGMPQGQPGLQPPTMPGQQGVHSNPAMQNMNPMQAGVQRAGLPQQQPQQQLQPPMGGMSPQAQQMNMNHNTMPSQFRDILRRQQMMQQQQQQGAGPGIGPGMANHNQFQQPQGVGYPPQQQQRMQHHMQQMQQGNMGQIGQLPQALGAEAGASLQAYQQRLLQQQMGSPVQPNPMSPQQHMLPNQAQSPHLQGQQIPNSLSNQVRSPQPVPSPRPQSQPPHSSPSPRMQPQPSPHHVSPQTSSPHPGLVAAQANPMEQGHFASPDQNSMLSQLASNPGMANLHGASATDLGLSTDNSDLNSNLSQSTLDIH

Homo sapiens [3] = species on record: Homo sapiens; test: Inhibition of human recombinant KDAC8 using Boc-Lys-(Ac)-AMC as substrate at 50 to 100 uM incubated for 45 mins by fluorescence microplate reader analysis; conditions: dose 50-100 µM
Homo sapiens [4] = species on record: Homo sapiens; test: Inhibition of human recombinant KDAC1 using Boc-Lys-(Ac)-AMC as substrate at 50 to 100 uM incubated for 45 mins by fluorescence microplate reader analysis; conditions: dose 50-100 µM
[5] = target: T1, Protein deacetylase HDAC6 (Homo sapiens) (UniProt Q9UBN7); test: Inhibition of human recombinant KDAC6 using Boc-Lys-(Ac)-AMC as substrate at 50 to 100 uM incubated for 45 mins by fluorescence microplate reader analysis; conditions: dose 50-100 µM
T1 sequence (whole entry): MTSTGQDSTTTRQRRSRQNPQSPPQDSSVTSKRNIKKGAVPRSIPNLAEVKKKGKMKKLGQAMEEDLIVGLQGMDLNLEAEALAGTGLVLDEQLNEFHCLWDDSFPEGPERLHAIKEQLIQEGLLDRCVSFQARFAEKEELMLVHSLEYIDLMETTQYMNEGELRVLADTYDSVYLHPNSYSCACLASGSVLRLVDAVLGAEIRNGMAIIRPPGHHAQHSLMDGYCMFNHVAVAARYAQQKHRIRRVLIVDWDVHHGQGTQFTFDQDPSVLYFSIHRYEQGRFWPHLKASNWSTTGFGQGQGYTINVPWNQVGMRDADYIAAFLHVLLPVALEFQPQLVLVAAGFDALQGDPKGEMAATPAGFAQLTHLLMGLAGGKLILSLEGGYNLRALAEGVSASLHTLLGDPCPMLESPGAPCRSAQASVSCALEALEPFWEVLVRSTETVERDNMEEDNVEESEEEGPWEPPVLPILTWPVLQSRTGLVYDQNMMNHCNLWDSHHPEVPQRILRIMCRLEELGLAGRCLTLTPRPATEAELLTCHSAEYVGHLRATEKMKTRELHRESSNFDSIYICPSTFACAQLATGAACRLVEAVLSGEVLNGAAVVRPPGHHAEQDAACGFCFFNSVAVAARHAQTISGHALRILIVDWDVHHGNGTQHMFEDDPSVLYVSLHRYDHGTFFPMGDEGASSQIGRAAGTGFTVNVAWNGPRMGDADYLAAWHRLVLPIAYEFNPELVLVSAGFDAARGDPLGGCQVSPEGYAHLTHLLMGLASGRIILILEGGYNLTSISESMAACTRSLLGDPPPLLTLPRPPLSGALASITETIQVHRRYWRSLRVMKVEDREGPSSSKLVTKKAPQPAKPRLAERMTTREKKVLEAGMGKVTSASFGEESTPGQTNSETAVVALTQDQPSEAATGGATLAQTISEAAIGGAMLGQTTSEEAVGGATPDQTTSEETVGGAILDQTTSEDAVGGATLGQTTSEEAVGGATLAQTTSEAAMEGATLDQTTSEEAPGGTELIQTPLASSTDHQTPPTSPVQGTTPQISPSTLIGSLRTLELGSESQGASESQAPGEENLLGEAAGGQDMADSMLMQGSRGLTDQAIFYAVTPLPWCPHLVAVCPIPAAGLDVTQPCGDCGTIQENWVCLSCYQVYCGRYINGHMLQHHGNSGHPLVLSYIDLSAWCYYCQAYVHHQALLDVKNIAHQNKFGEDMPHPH

[6] = target: Histone deacetylase 3 (Homo sapiens) (UniProt O15379); test: Inhibition of human recombinant KDAC3 using Boc-Lys-(Ac)-AMC as substrate at 50 to 100 uM incubated for 45 mins by fluorescence microplate reader analysis; conditions: dose 50-100 µM
Sequence of Histone deacetylase 3 (Homo sapiens) (O15379 whole entry): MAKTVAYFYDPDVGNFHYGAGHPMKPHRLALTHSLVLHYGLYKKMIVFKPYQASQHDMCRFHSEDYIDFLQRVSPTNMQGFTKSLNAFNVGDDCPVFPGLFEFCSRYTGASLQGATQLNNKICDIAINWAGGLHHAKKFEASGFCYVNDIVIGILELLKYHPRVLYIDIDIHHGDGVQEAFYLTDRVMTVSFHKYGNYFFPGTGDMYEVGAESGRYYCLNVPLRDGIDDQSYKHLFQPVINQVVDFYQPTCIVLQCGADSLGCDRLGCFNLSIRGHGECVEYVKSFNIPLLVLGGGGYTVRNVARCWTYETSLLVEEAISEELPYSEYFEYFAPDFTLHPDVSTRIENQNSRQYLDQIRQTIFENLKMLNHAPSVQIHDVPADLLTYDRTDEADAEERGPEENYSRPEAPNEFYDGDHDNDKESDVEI

[7] = target: Histone deacetylase 2 (Homo sapiens) (UniProt Q92769); test: Inhibition of human recombinant KDAC2 using Boc-Lys-(Ac)-AMC as substrate at 50 to 100 uM incubated for 45 mins by fluorescence microplate reader analysis; conditions: dose 50-100 µM
Sequence of Histone deacetylase 2 (Homo sapiens) (Q92769 whole entry): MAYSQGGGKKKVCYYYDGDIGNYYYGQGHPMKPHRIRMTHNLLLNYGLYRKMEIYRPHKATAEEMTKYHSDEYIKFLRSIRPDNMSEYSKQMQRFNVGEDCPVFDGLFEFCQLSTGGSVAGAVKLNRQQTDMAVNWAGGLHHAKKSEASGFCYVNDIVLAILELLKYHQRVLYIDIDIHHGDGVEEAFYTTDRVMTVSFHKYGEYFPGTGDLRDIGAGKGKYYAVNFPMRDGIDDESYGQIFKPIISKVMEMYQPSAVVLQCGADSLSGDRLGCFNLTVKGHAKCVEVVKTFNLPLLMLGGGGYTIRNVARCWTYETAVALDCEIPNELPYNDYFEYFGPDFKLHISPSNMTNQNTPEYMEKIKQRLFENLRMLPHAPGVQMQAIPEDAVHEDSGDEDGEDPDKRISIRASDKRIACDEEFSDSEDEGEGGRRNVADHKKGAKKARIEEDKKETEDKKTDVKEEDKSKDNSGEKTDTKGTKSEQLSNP

[8] = Inhibition of human recombinant KDAC8
[9] = target: T2, Histone acetyltransferase KAT8 (Homo sapiens) (UniProt Q9H7Z6); test: Inhibition of N-terminal 6His tagged KAT8 (173 to 458 residues) (unknown origin) expressed in Escherichia coli BL21(DE3) using biotinylated histone H4 peptide and [3H]Acetyl-CoA as substrates at 200 uM preincubated for 20 mins followed by substrate addition and measured after 4 hrs by MicroBeta microplate counter analysis; conditions: time 260.0 min
T2 sequence (whole entry): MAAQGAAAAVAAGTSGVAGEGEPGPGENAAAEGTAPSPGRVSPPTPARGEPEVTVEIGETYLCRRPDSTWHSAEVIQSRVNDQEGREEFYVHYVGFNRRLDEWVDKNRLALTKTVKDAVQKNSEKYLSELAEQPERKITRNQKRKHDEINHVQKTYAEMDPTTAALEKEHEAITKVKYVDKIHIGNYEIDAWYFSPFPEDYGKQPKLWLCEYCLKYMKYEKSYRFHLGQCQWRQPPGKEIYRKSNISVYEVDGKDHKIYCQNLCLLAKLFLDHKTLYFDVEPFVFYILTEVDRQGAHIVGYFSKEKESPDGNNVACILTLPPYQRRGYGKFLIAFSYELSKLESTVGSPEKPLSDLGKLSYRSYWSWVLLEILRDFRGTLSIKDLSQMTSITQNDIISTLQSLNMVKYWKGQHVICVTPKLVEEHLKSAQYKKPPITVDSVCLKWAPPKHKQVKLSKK

Sequence of Histone acetyltransferase KAT2B (Homo sapiens) (Q92831 whole entry, looked up, the tested form may be a part): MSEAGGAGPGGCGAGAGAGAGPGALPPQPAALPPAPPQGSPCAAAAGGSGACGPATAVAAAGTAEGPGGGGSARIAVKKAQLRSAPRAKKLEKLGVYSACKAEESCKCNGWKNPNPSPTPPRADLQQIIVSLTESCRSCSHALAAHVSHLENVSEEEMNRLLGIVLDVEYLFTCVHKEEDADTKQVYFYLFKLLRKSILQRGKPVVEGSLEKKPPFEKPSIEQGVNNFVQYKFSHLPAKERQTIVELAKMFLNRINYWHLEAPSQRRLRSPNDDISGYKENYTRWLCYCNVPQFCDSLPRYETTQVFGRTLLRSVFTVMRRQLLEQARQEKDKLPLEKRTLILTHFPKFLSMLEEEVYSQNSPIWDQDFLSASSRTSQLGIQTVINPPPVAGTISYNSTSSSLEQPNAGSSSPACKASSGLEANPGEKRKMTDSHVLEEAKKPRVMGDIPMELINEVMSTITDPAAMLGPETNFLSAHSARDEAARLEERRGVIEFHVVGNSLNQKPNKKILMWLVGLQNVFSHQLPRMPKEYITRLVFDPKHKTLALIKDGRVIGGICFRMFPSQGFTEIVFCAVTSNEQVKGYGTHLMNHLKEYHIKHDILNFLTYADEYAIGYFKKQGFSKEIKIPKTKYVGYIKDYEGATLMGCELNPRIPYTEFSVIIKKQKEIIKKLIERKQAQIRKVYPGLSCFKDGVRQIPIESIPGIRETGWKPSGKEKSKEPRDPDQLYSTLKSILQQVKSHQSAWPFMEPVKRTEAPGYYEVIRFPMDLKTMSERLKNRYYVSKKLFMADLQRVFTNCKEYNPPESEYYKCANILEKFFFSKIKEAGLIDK

| SMILES | inhibition [1] | inhibition [2] | also measured |
| --- | --- | --- | --- |
| O=C(O)c1ccc(N2N=C(Cc3ccccc3)/C(=C/c3ccc[nH]3)C2=O)cc1 | inactive | inactive | – |
| CC1=NN(c2ccc(C(=O)O)cc2)C(=O)/C1=C\c1cc[nH]c1 | inactive | inactive | – |
| CC1=NN(c2ccc(C(=O)O)cc2)C(=O)/C1=C\c1ccc(-c2cc(C)c(C)cc2[N+](=O)[O-])o1 | inactive | – | inhibition (Homo sapiens [3]): Active; inhibition (Homo sapiens [4]): Active; inhibition [5]: Active; inhibition [6]: Active; inhibition [7]: Active; IC50 [8]: 7 µM; inhibition [9]: inactive |
| CC(C)C1=NN(c2ccc(C(=O)O)cc2)C(=O)/C1=C\c1ccc[nH]1 | inactive | inactive | – |
| Cc1nn(-c2ccc(C(=O)O)cc2)c(O)c1Cc1ccccc1 | inactive | inactive | – |
| CC1=NN(c2ccc(C(=O)O)cc2)C(=O)/C1=C\c1cc(C(=O)c2ccccc2O)c[nH]1 | – | – | inhibition [9]: inactive |
| CC1=NN(c2ccc(C(N)=O)cc2)C(=O)/C1=C\c1ccc[nH]1 | inactive | inactive | – |
| CC1=NN(c2ccc(C(=O)O)cc2)C(=O)/C1=C\c1c[nH]c2ccccc12 | inactive | – | – |
| CC1=NN(c2ccc(C(=O)O)cc2)C(=O)/C1=C\c1cccn1C | inactive | – | – |
| CC1=NN(c2ccc(C(=O)O)cc2)C(=O)C1 | – | – | inhibition [9]: inactive |
| CC1=NN(c2ccc(C(=O)O)cc2)C(=O)/C1=C\c1cc(C(=O)c2ccccc2[N+](=O)[O-])c[nH]1 | inactive | – | – |
| CC1=NN(c2ccc(C(=O)NCCCN3CCCC3)cc2)C(=O)/C1=C\c1ccc[nH]1 | – | – | inhibition [9]: inactive |
| CC1=NN(c2ccc(C(=O)O)cc2)C(=O)/C1=C\c1cc(C(=O)c2ccc(Cl)cc2)c[nH]1 | – | – | inhibition [9]: inactive |
| CC1=NN(c2ccc(C(=O)O)cc2)C(=O)/C1=C\c1ccn[nH]1 | inactive | inactive | – |
| CC1=NN(c2ccc(C(=O)O)cc2)C(=O)/C1=C\c1cccn1-c1ccccc1 | inactive | – | – |
| CC1=NN(c2ccccc2)C(=O)/C1=C\c1cc(C(=O)c2ccccc2[N+](=O)[O-])c[nH]1 | – | – | inhibition [9]: inactive |

| SMILES | inhibition [1] | inhibition [2] | also measured |
| --- | --- | --- | --- |
| CC1=NN(c2ccc(C(=O)O)cc2)C(=O)/C1=C\c1ccccc1 | inactive | inactive | – |
| CC1=NN(c2ccc(C(=O)O)cc2)C(=O)/C1=C\c1cc(C(=O)c2ccccc2Cl)c[nH]1 | inactive | – | – |
| CC1=NN(c2ccc(C(=O)O)cc2)C(=O)/C1=C(/C)c1ccc[nH]1 | inactive | inactive | – |
| CC1=NN(c2ccc(C(=O)O)cc2)C(=O)/C1=C\c1cc(C(=O)c2ccccc2C)c[nH]1 | inactive | – | – |
| CC1=NN(c2ccc(C(=O)O)cc2)C(=O)/C1=C\c1cc(C(=O)c2ccccc2)c[nH]1 | inactive | – | – |
| CC1=NN(c2ccc(C(=O)N(C)C)cc2)C(=O)/C1=C\c1ccc[nH]1 | inactive | inactive | – |
| CCCCCCCc1ccc(CCc2cccc(O)c2C(=O)O)cc1 | inactive | – | – |
| Cc1nn(-c2ccc(C(=O)O)cc2)c(O)c1Cc1ccc[nH]1 | inactive | inactive | – |
| CC1=NN(c2ccccc2)C(=O)/C1=C\c1cc(C(=O)c2ccccc2)c[nH]1 | – | – | inhibition [9]: inactive |
| CC1=NN(c2ccc(C(=O)O)cc2)C(=O)/C1=C\c1c[nH]cn1 | inactive | – | – |
| CC1=NN(c2cccc(C(=O)O)c2)C(=O)/C1=C\c1ccc[nH]1 | inactive | inactive | – |
| CC1=NN(c2ccc(C(=O)NCc3ccccc3)cc2)C(=O)/C1=C\c1ccc[nH]1 | inactive | inactive | inhibition [9]: inactive |
| CC1=NN(c2ccc(C(=O)O)cc2)C(=O)/C1=C\c1cc2ccccc2[nH]1 | inactive | – | – |
| CC1=NN(c2ccc(C(=O)O)cc2)C(=O)C1=Cc1ccco1 (mixture of isomers) | inactive | – | – |
| CC1=NN(c2ccc(C(=O)O)cc2)C(=O)/C1=C\c1cccs1 | inactive | – | – |
| CC1=NN(c2ccc(C(=O)O)cc2)C(=O)/C1=C\c1cc(C(=O)c2ccc([N+](=O)[O-])cc2)c[nH]1 | – | – | inhibition [9]: inactive |
